We go through 28 compounds from patent publication US20240182445A1 (ONO PHARMACEUTICAL CO., LTD., priority 2019, published 2024).

pIC50: −log10 of the molar value.

The target in the first experiment is T1, human TREK-1 (Homo sapiens, UniProt O95069).
T1 construct: expressed in transfected cells
T1 sequence (O95069 1-426): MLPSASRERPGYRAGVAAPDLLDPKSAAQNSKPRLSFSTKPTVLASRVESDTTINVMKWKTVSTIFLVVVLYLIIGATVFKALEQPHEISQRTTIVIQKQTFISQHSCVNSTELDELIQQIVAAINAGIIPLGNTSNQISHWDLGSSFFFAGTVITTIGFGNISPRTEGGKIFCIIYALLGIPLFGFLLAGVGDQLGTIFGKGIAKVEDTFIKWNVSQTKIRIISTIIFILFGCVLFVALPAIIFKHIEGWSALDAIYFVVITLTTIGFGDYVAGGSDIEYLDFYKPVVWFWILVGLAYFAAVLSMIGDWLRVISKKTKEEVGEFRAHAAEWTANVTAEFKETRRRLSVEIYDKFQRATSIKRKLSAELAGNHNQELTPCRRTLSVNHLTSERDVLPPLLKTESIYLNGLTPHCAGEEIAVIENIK
Put plainly: TREK-1 Thallium (Tl+) flux assay, Method 1. It counts as cell-based. To be noted: TREK-1 Thallium (Tl+) flux assay, Method 1. The essentials: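 CHO-K1 cells stably expressing human TREK-1, loaded with Thallos dye, received compound or 0.3% DMSO vehicle for 10 min before thallium stimulus buffer. ΔRatio is fluorescence at 25 s after thallium addition over mean pre-addition fluorescence; % inhibition calculated from it.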
`COc1ncc(-c2cnc(NC(=O)c3c(Cl)cnn3C3CCN(C(=O)OC(C)(C)C)CC3)c(C)c2)cn1` [Compound 419, tert-butyl 4-(4-chloro-5-((5-(2-methoxypyrimidin-5-yl)-3-methylpyridin-2-yl)carbamoyl)-1H-pyrazol-1-yl)piperidine-1-carboxylate] showed a negative logarithm of the IC50 (pIC50) of 5.38.
Consider `Cc1cc(-c2cnn(-c3ccc(F)cc3)c2)cnc1NC(=O)c1c(Cl)cnn1C1CC(C#N)C1` (stereo not shown) [Compound 394, 4-chloro-1-(3-cyanocyclobutyl)-N-(5-(1-(4-fluorophenyl)-1H-pyrazol-4-yl)-3-methylpyridin-2-yl)-1H-pyrazole-5-carboxamide], for which the negative logarithm of the IC50 (pIC50) was 5.87.

The experiment is the same for the next values; noted with them: TREK-1 Thallium (Tl+) flux assay; no *^12 (Method 2) mark on these rows.
As to `Cc1ncc(Cn2ncc(Cl)c2C(=O)Nc2ncc(C#Cc3ccccc3)cc2C)s1` [Compound 374, 4-chloro-N-(3-methyl-5-(phenylethynyl)pyridin-2-yl)-1-((2-methylthiazol-5-yl)methyl)-1H-pyrazole-5-carboxamide], the pIC50 was 5.95.
Still for that read-out and setting: in the case of `CC(=O)N1CCC[C@H](Cn2ncc(Cl)c2C(=O)Nc2ncc(C#Cc3ccccc3)cc2F)C1` [Compound 262, (S)-1-((1-acetylpiperidin-3-yl)methyl)-4-chloro-N-(3-fluoro-5-(phenylethynyl)pyridin-2-yl)-1H-pyrazole-5-carboxamide] it was 6.37.
Same read-out and setting: in the case of `CC(C)(C)OC(=O)N1CC(n2ncc(Cl)c2C(=O)Nc2ncc(C#Cc3ccccc3)cc2F)C1` [Compound 243, tert-butyl 3-(4-chloro-5-((3-fluoro-5-(phenylethynyl)pyridin-2-yl)carbamoyl)-1H-pyrazol-1-yl)azetidine-1-carboxylate] it was 6.42; in that of `Cc1cc(C#Cc2ccccc2)cnc1NC(=O)c1c(Cl)cnn1CC1(C)CCN(C(=O)OC(C)(C)C)CC1` [Compound 301, tert-butyl 4-((4-chloro-5-((3-methyl-5-(phenylethynyl)pyridin-2-yl)carbamoyl)-1H-pyrazol-1-yl)methyl)-4-methylpiperidine-1-carboxylate], 6.27; in that of `Cc1cc(C#Cc2ccc(F)cc2)cnc1NC(=O)c1c(Cl)cnn1CC1(F)CCN(C(=O)C(C)C)CC1` [Compound 339, 4-chloro-1-((4-fluoro-1-isobutyrylpiperidin-4-yl)methyl)-N-(5-((4-fluorophenyl)ethynyl)-3-methylpyridin-2-yl)-1H-pyrazole-5-carboxamide], 6.14.
Regarding `CC(=O)N1CCC[C@H](Cn2ncc(Cl)c2C(=O)Nc2ncc(C#Cc3ccccc3)cc2C)C1` [Compound 296, (S)-1-((1-acetylpiperidin-3-yl)methyl)-4-chloro-N-(3-methyl-5-(phenylethynyl)pyridin-2-yl)-1H-pyrazole-5-carboxamide], the pIC50 is 6.28.
Still for that read-out and setting: with `Cc1cc(C#Cc2ccccc2)cnc1NC(=O)c1c(Cl)cnn1C1CCCN(C(=O)OC(C)(C)C)CC1` (stereo not shown) [Compound 277, tert-butyl 4-(4-chloro-5-((3-methyl-5-(phenylethynyl)pyridin-2-yl)carbamoyl)-1H-pyrazol-1-yl)azepane-1-carboxylate] the figure was 6.32; with `Cc1cc(C#Cc2cccc(F)c2)cnc1NC(=O)c1c(Cl)cnn1CC1CCN(C(=O)C(C)C)CC1` [Compound 249, 4-chloro-N-(5-((3-fluorophenyl)ethynyl)-3-methylpyridin-2-yl)-1-((1-isobutyrylpiperidin-4-yl)methyl)-1H-pyrazole-5-carboxamide], 6.40; with `CC(=O)N1CCC(n2ncc(Cl)c2C(=O)Nc2cnc(C#Cc3ccccc3)c(F)c2)CC1` [Compound 378, 1-(1-acetylpiperidin-4-yl)-4-chloro-N-(5-fluoro-6-(phenylethynyl)pyridin-3-yl)-1H-pyrazole-5-carboxamide], 5.25.
On the same count and under the same terms, in the case of `CC(C)(C)OC(=O)N1CCN(CCn2ncc(Cl)c2C(=O)Nc2ncc(C#Cc3ccccc3)cc2F)CC1` [Compound 257, tert-butyl 4-(2-(4-chloro-5-((3-fluoro-5-(phenylethynyl)pyridin-2-yl)carbamoyl)-1H-pyrazol-1-yl)ethyl)piperazine-1-carboxylate] it was 6.38; in that of `Cc1cc(OCc2ccccc2)ccc1NC(=O)c1c(Cl)cnn1C1CCN(C(=O)C2COCCO2)CC1` (stereo not shown) [Compound 391, 1-(1-(1,4-dioxane-2-carbonyl)piperidin-4-yl)-N-(4-(benzyloxy)-2-methylphenyl)-4-chloro-1H-pyrazole-5-carboxamide], 5.90.
Still for that read-out and setting: in the case of `CC(=O)N1CC[C@@H](Cn2ncc(Cl)c2C(=O)Nc2ncc(C#Cc3ccccc3)cc2C)[C@H](F)C1` [Compound 208, 1-(((3S,4S)-1-acetyl-3-fluoropiperidin-4-yl)methyl)-4-chloro-N-(3-methyl-5-(phenylethynyl)pyridin-2-yl)-1H-pyrazole-5-carboxamide] it was 6.51; in that of `Cc1cc(C#Cc2ccccc2)cnc1NC(=O)c1c(Cl)ccn1CC1CCOCC1` [Compound 375, 3-chloro-N-(3-methyl-5-(phenylethynyl)pyridin-2-yl)-1-((tetrahydro-2H-pyran-4-yl)methyl)-1H-pyrrole-2-carboxamide], 5.94.
For the compound `Cc1cc(C#Cc2ccc(F)cc2)cnc1NC(=O)c1c(Cl)nn(C)c1-c1ccc2c(cnn2C)c1` [Compound 342, 3-chloro-N-(5-((4-fluorophenyl)ethynyl)-3-methylpyridin-2-yl)-1-methyl-5-(1-methyl-1H-indazol-5-yl)-1H-pyrazole-4-carboxamide], the negative-log IC50 (pIC50) was 6.12.
Same read-out and setting: in the case of `Cc1cc(C#Cc2ccccc2)cnc1NC(=O)c1c(Cl)cnn1CC1CCC(C)(C)O1` (stereo not shown) [Compound 371, 4-chloro-1-((5,5-dimethyltetrahydrofuran-2-yl)methyl)-N-(3-methyl-5-(phenylethynyl)pyridin-2-yl)-1H-pyrazole-5-carboxamide] it was 6.00.
The same measure, in the same setting: in the case of `CC(=O)N[C@H]1C[C@H](n2ncc(Cl)c2C(=O)Nc2ncc(C#Cc3ccc(F)cc3)cc2C)C1` [Compound 351, 1-(trans-3-acetamidocyclobutyl)-4-chloro-N-(5-((4-fluorophenyl)ethynyl)-3-methylpyridin-2-yl)-1H-pyrazole-5-carboxamide] it was 6.09.
With `CC(=O)N1CCC(CCn2ncc(Cl)c2C(=O)Nc2ncc(C#Cc3cccs3)cc2F)CC1` [Compound 311, 1-(2-(1-acetylpiperidin-4-yl)ethyl)-4-chloro-N-(3-fluoro-5-(thiophen-2-ylethynyl)pyridin-2-yl)-1H-pyrazole-5-carboxamide], the negative-log IC50 (pIC50) is 6.23.
Same read-out and setting: in the case of `Cc1cc(C#Cc2ccccc2)cnc1NC(=O)c1c(Cl)cnn1CC1CCN(C(=O)OC(C)(C)C)CC1C` (stereo not shown) [Compound 265, tert-butyl 4-((4-chloro-5-((3-methyl-5-(phenylethynyl)pyridin-2-yl)carbamoyl)-1H-pyrazol-1-yl)methyl)-3-methylpiperidine-1-carboxylate] it was 6.37.

The same experiment, now with this note: TREK-1 Thallium (Tl+) flux assay; values without footnote *12 are Method 1.
For the compound `CC(=O)N[C@H]1CC[C@H](n2ncc(Cl)c2C(=O)Nc2ncc(C#Cc3ccc(F)cc3)cc2C)CC1` [Compound 193, 1-(trans-4-acetamidocyclohexyl)-4-chloro-N-(5-((4-fluorophenyl)ethynyl)-3-methylpyridin-2-yl)-1H-pyrazole-5-carboxamide], the negative logarithm of the IC50 (pIC50) is 6.54.
`CC(=O)N1CC[C@H](n2ncc(Cl)c2C(=O)Nc2ncc(C#Cc3ccccc3)cc2C)C1` [Compound 128, (S)-1-(1-acetylpyrrolidin-3-yl)-4-chloro-N-(3-methyl-5-(phenylethynyl)pyridin-2-yl)-1H-pyrazole-5-carboxamide] gave a pIC50 of 6.66.
Still for that read-out and setting: with `Cc1cc(C#Cc2ccccc2)cc(F)c1NC(=O)c1c(Cl)cnn1[C@H]1CCOC1` [Compound 157, (S)-4-chloro-N-(2-fluoro-6-methyl-4-(phenylethynyl)phenyl)-1-(tetrahydrofuran-3-yl)-1H-pyrazole-5-carboxamide] the figure was 6.60.
Same read-out and setting: in the case of `CC(=O)N1CC2(CC(n3ncc(Cl)c3C(=O)Nc3ncc(C#Cc4ccccc4)cc3C)C2)C1` [Compound 173, 1-(2-acetyl-2-azaspiro[3.3]heptan-6-yl)-4-chloro-N-(3-methyl-5-(phenylethynyl)pyridin-2-yl)-1H-pyrazole-5-carboxamide] it was 6.57.
The same measure, in the same setting: with `CC(=O)N1CCC(n2ncc(Cl)c2C(=O)Nc2ncc(C#Cc3cccc(F)c3)cc2F)CC1` [Compound 25, 1-(1-acetylpiperidin-4-yl)-4-chloro-N-(3-fluoro-5-((3-fluorophenyl)ethynyl)pyridin-2-yl)-1H-pyrazole-5-carboxamide] the figure was 7.05.
Consider `CCNC(=O)N1CCC(n2ncc(Cl)c2C(=O)Nc2ncc(C#Cc3ccc(F)cc3)cc2C)CC1` [Compound 92, 4-(4-chloro-5-((5-((4-fluorophenyl)ethynyl)-3-methylpyridin-2-yl)carbamoyl)-1H-pyrazol-1-yl)-N-ethylpiperidine-1-carboxamide], for which the pIC50 is 6.74.
The same measure, in the same setting: with `O=C(Nc1ncc(C#Cc2cccs2)cc1F)c1c(Cl)cnn1CC1CCOCC1` [Compound 69, 4-chloro-N-(3-fluoro-5-(thiophen-2-ylethynyl)pyridin-2-yl)-1-((tetrahydro-2H-pyran-4-yl)methyl)-1H-pyrazole-5-carboxamide] the figure was 6.80; with `Cc1cc(C#Cc2cccs2)cnc1NC(=O)c1c(Cl)cnn1[C@H]1CCOC1` [Compound 89, (S)-4-chloro-N-(3-methyl-5-(thiophen-2-ylethynyl)pyridin-2-yl)-1-(tetrahydrofuran-3-yl)-1H-pyrazole-5-carboxamide], 6.74.
